Patent publication US11173146B2, “Selective activators of the intermediate conductance CA2+activated K+ channel KCa3.1 and their methods of use” (The Regents of the University of California, priority 2014, dated 2021)
Entries after “also recorded” stand apart in the source; their conditions may differ.

How the values were obtained:
[1] = target: T1, hKV2.1 (Homo sapiens, UniProt Q14721); experiment: KV2.1 current inhibition (HEK293); assay type: cell-based
T1 construct: host or cells: HEK293
From the text: (§1) Cells, Cell lines and Clones. HEK-293 cells stably expressing hKCa2.1, rKCa2.2 and hKCa3.1 were obtained from Khaled Houamed (University of Chicago, Ill.) in 2002 and have been maintained in the Wulff laboratory at the University of California since then. The cloning of hKCa2.3 (19 CAG repeats) and hKCa3.1 has been previously described (Wulff et al., 2000). The hKCa2.3 clone was later stably expressed in COS-7 cells at Aurora Biosciences Corp., San Diego, Calif. […]
(§2) Electrophysiology. […] For manual experiments COS-7, HEK-293 or L929 cells were trypsinized, plated onto poly-L-lysine coated coverslips and typically recorded from between 20 min and 4 h after plating. […] Free Ca^2+ concentrations were calculated with MaxChelator assuming a temperature of 25° C., a pH of 7.2 and an ionic strength of 160 mM. To reduce contaminating currents from native chloride channels in COS-7 cells, KCa2.3 currents were recorded with an internal pipette solution containing (in mM): 145 K^+ aspartate, 2 MgCl2, 10 HEPES, 10 EGTA and 7.4 CaCl2 (500 nM free Ca^2+), pH 7.2, 290-310 mOsm. […] KV2.1, Kv1.3, and KV3.1 currents were recorded in normal Ringer solution with a Ca^2+-free KF-based pipette solution as previously described (Schmitz et al., 2005). HERG (KV11.1) currents were recorded with a 2-step pulse from −80 mV first to 20 mV for 1 sec and then to −50 mV for 1 sec. […]

[2] = system: porcine coronary arteries; experiment: Isometric myography on porcine coronary arteries, bradykinin-induced EDH-type relaxation; conditions: compound 1 μM; for BK (1 μM)-induced relaxation potentiated to: U46619-precontracted, L-NNA and indomethacin
From the text: Isometric Myography on Porcine Coronary Arteries (PCA). PCA were carefully dissected from hearts kindly provided by the local abattoir (Mercazaragoza, Zaragoza, Spain), cleaned of fat and connective tissue, and cut into 3-4 mm rings. Rings were mounted on hooks connected to an isometric force transducer (Pioden UF1, Graham Bell House, Canterbury, UK) and were pre-stretched to an initial tension of 1 g. […] Changes in tension were registered using a Mac Lab System/8e program (AD Instruments Inc., Milford, Mass.). The buffer contained the NO-synthase blocker, Nω-nitro-L-arginine (L-NNA, 300 μM), and the cyclooxygenase blocker indomethacin (10 μM) in order to measure EDH-type relaxation. […] After washout, rings were contracted with a high KCl buffer (60 mM) to determine maximal contraction. […] UCL1684 and U46619 were purchased from Tocris (Wiesbaden-Nordenstadt, Germany). Data analysis: EDH-type relaxations were determined as % change of U46619 contraction and are shown relative to the totally relaxed state (w/o U46619).

[3] = Plasma protein binding by ultrafiltration; assay type: in vitro ADME; conditions: rat plasma, 10 μM compound
Protocol: Rat plasma (500 μl) was spiked with 10 μM of compound in 1% dimethylsulfoxide and the sample loaded onto a Microcon YM-30 Centrifugal Filter (Millipore Corp., Bedford, Mass., USA) and centrifuged at 13,500 g for 30 minutes at room temperature. The retentate was collected by inverting the filter into an Eppendorf tube and spinning at 13,500 g for 15 minutes.

[4] = system: wild-type mice; experiment: Telemetry of blood pressure and heart rate in wild-type mice; assay type: in vivo; conditions: for mean arterial blood pressure: FIG. 6A
Protocol: Telemetry. […] . […] . […] . […] . Maximal injection volume was ≤600 μl. […] . […] Data were analyzed using the DSI software.
. […] . The blood pressure drop was accompanied by a severe reduction of heart rate (HR) by ˜400 bpm (FIG. 6A left). To avoid fatal hypothermia or circulatory collapse, we handled these severely bradycardic mice for ˜2 h and increased RT to 34° C. As shown in FIG. 6A these maneuvers increased MAP transiently, presumably because of a sympathetic input on total peripheral resistance, but not HR and the low HR persisted over another 10 h before the mice slowly recovered (FIG. 6A left). […] However, this drop was more transient and lasted for ˜3 h.

[5] = target: T2, mKV3.1 (Mus musculus, UniProt P15388); experiment: KV3.1 current inhibition (L929 cells); assay type: cell-based
T2 construct: expressed in transfected cells; host or cells: L929
From the text: as §1, §2

T1 sequence (Q14721 whole entry): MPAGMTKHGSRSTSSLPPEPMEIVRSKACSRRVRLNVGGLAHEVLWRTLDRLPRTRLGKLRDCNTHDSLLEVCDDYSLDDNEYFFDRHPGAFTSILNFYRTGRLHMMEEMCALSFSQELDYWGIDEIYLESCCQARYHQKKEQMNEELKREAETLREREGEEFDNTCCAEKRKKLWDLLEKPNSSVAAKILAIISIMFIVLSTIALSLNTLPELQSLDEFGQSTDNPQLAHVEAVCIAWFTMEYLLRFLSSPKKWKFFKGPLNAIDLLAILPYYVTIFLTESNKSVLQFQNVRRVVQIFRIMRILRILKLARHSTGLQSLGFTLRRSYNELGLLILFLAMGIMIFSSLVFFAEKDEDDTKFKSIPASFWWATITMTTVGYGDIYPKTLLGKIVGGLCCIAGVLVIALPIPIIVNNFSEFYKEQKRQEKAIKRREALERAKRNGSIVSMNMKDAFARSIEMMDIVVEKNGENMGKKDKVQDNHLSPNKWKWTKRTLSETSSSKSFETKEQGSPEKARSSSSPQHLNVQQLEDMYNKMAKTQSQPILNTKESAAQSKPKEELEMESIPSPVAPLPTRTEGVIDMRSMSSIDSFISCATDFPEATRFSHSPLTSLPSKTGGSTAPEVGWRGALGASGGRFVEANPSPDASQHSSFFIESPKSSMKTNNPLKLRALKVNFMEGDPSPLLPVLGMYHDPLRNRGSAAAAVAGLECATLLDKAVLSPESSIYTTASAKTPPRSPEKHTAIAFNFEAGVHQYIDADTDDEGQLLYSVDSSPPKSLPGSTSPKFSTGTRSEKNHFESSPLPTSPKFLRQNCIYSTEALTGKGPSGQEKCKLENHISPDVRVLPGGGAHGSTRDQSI
T2 sequence (P15388 whole entry): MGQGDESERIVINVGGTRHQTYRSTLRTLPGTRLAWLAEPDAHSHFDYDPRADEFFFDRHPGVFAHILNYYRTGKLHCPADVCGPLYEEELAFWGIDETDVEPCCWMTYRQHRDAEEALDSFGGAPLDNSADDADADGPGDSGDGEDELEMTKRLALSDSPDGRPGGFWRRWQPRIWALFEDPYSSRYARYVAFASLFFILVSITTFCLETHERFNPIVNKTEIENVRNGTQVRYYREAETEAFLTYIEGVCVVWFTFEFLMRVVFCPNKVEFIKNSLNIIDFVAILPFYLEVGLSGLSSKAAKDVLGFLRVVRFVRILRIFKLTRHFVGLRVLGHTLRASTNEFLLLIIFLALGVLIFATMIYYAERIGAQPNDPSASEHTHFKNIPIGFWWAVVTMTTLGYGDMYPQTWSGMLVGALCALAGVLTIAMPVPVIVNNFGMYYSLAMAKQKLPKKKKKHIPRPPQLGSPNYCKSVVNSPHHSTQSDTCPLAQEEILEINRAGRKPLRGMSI

Row | Structure (SMILES) | inhibition at 50 µM ([1]; at 50 μM) [%] | bradykinin-induced EDH-type relaxation [2] | BK (1 μM)-induced relaxation potentiated to [2] | fraction unbound at 30 min, 10 μM [3] | MAP ([4]; 30 mg/kg i.p.) | drop in mean arterial blood pressure (MAP) ([4]; 100 mg/kg i.p.) [mmHg] | duration of MAP drop ([4]; 100 mg/kg i.p.) [h] | heart rate ([4]; 100 mg/kg i.p.) | mean arterial blood pressure ([4]; 100 mg/kg i.p.) | inhibition at 50 µM ([5]; at 50 μM) [%] | inhibition at 25 µM ([1]; at 25 μM) [%] | change of HR ([4]; 30 mg/kg i.p.) [bpm] | duration of HR decrease after injection ([4]; 30 mg/kg i.p.) [h] | heart rate ([4]; 30 mg/kg i.p., 2 h after injection) | reduction of heart rate (HR) ([4]; 100 mg/kg i.p.) [bpm] | inhibition at 25 µM ([5]; at 25 μM) [%]
1 | Cc1cc2nc(N)oc2c2ccccc12 [SKA-121, 5-Methylnaphtho[2,1-d]oxazol-2-amine] | 43.2 ± 12.5 | increased | ≈ 300% | 0.19 | Neither SKA-111 nor SKA-121 caused significant changes; also recorded: did not produce significant alterations | ~20 | ~3 | not and only moderately reduced | reduced mean arterial blood pressure | 46.3 ± 16.5 |  |  |  |  |  | 
2 | Cc1cc2sc(N)nc2c2ccccc12 [SKA-111, 5-methylnaphtho[1,2-d]thiazol-2-amine] |  | increased | ≈ 200% | 0.41 | Neither SKA-111 nor SKA-121 caused significant changes; also recorded: did not produce significant alterations | ~25 |  | severely reduced heart rate | reduced mean arterial blood pressure |  | 37.3 ± 9 | ~−50 | ~2 | moderately reduced heart rate | ~400 | 32.9 ± 1.3
